Laboratory results from paper PMC6691788, “Design and synthesis of phthalazine-based compounds as potent anticancer agents with potential antiangiogenic activity via VEGFR-2 inhibition” (Journal of Enzyme Inhibition and Medicinal Chemistry, 2019).

How the values were obtained:
MDA-MB-435 = assay: NCI 60 cell panel SRB screen; assay type: cell-based; conditions: Homo sapiens
SK-OV-3 = assay: NCI 60 cell panel SRB screen; assay type: cell-based; conditions: Homo sapiens
MCF7 = assay: NCI 60 cell panel SRB screen; assay type: cell-based; conditions: Homo sapiens
SN12C = assay: NCI 60 cell panel SRB screen; assay type: cell-based; conditions: Homo sapiens
K-562 = assay: NCI 60 cell panel SRB screen; assay type: cell-based; conditions: Homo sapiens, K562
NCI-H23 = assay: NCI 60 cell panel SRB screen; assay type: cell-based; conditions: Homo sapiens
A549/ATCC = assay: NCI 60 cell panel SRB screen; assay type: cell-based; conditions: Homo sapiens
SF-268 = assay: NCI 60 cell panel SRB screen; assay type: cell-based; conditions: Homo sapiens
NCI-H322M = assay: NCI 60 cell panel SRB screen; assay type: cell-based; conditions: Homo sapiens
ACHN = assay: NCI 60 cell panel SRB screen; assay type: cell-based; conditions: Homo sapiens
VEGFR-2 tyrosine kinase = target: T1, VEGFR-2 tyrosine kinase (Homo sapiens, UniProt P35968); assay: In vitro VEGFR-2 tyrosine kinase assay (BPS Bioscience); assay type: biochemical; conditions: read-out: VEGFR-2 % inhibition; 10 μM concentration
T1 construct: purchased BPS Bioscience 40301
T1 sequence (P35968 20-1356): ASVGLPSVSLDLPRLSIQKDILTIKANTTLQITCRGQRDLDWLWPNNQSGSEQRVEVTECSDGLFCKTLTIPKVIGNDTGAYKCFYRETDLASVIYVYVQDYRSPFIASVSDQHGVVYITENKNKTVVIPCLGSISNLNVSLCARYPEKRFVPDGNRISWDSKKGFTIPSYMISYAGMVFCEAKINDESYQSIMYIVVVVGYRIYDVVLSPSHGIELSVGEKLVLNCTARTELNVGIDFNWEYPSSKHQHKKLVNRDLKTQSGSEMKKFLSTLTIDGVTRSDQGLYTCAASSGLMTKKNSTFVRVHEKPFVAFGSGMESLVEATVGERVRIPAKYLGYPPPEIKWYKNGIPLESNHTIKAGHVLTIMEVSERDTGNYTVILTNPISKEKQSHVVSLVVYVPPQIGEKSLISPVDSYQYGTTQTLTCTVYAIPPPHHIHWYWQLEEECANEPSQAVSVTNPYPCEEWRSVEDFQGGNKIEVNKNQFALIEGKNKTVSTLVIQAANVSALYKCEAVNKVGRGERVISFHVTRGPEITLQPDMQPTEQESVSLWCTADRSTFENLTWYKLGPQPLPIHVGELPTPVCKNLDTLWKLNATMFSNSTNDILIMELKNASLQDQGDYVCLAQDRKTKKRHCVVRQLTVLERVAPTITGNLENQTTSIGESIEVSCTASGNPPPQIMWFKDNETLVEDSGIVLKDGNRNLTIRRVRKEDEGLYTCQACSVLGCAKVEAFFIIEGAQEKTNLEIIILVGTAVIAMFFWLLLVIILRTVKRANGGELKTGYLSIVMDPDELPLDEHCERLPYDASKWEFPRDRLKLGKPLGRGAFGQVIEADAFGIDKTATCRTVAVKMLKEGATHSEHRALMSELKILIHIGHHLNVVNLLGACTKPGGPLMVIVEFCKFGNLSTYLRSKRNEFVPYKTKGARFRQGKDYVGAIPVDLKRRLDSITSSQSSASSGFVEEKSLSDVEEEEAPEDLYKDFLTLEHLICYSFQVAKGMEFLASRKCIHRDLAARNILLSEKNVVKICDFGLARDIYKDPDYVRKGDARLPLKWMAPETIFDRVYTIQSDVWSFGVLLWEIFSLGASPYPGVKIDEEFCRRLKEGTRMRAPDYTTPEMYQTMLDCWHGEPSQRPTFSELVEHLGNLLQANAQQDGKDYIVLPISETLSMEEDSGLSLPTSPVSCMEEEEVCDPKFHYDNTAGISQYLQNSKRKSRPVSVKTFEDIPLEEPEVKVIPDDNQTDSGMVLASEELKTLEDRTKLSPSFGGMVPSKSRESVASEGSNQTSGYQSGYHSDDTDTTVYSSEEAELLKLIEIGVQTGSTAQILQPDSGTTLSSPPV
How it was run: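 For IC50, ADP formation after a 30-min 30 °C reaction was detected by ADP-Glo luminescence in duplicate, blank-subtracted and fitted as log inhibitor versus normalised response. The 10 µM single-dose test instead measured remaining ATP (Kinase-Glo Plus) after 40 min at 30 °C with poly(Glu,Tyr) substrate, 10 μM ATP, pH 7.4, 1% DMSO.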

UACC-257 = assay: NCI 60 cell panel SRB screen; assay type: cell-based; conditions: Homo sapiens
UO-31 = assay: NCI 60 cell panel SRB screen; assay type: cell-based; conditions: Homo sapiens
U251 = assay: NCI 60 cell panel SRB screen; assay type: cell-based; conditions: Homo sapiens, U-251
MOLT-4 = assay: NCI 60 cell panel SRB screen; assay type: cell-based; conditions: Homo sapiens
RPMI-8226 = assay: NCI 60 cell panel SRB screen; assay type: cell-based; conditions: Homo sapiens
HOP-92 = assay: NCI 60 cell panel SRB screen; assay type: cell-based; conditions: Homo sapiens
NCI-H522 = assay: NCI 60 cell panel SRB screen; assay type: cell-based; conditions: Homo sapiens
NCI/ADR-RES = assay: NCI 60 cell panel SRB screen; assay type: cell-based; conditions: Homo sapiens
SF-295 = assay: NCI 60 cell panel SRB screen; assay type: cell-based; conditions: Homo sapiens
[1] = 5 log dose, 48 h, read-out: LC50 (the source's name)
[2] = single dose 10 μM, read-out: percent cell growth promotion

## O=C(Nc1ccc(Cl)cc1)Nc1ccc(Oc2nncc3ccccc23)cc1 [Compound 7b, 1–(4-Chlorophenyl)-3–(4-(phthalazin-1-yloxy)phenyl)urea]
MDA-MB-435; MDA-MB-435
  GI50: 290 nM
MDA-MB-435; MDA-MB-435, read-out: TGI
  IC (TGI): 1070 nM
MDA-MB-435; MDA-MB-435, read-out: percent cell growth promotion
  activity at 10 µM: -33.3%
MDA-MB-435; MDA-MB-435, 5 log dose, 48 h, read-out: LC50 (the source's name)
  CC50: 5650 nM
SK-OV-3; SK-OV-3, 5 log dose
  GI50: 1740 nM
  IC (TGI): 5480 nM
SK-OV-3; SK-OV-3, 5 log dose, 48 h, read-out: LC50 (the source's name)
  CC50: 27200 nM
SK-OV-3; SK-OV-3, single dose 10 μM, read-out: percent cell growth promotion
  activity at 10 µM: 56.7%
MCF7; MCF7, read-out: TGI
  IC (TGI): 1890 nM
MCF7; MCF7, read-out: percent cell growth promotion
  activity at 10 µM: 14.3%
MCF7; MCF7, 5 log dose, read-out: GI50
  GI50: 320 nM
SN12C; 5 log dose
  GI50: 1030 nM
  IC (TGI): 3580 nM
SN12C; [1]
  CC50: > 100000 nM
SN12C; [2]
  activity at 10 µM: -3.83%
K-562; K-562, 5 log dose
  GI50: 370 nM
  IC (TGI): > 100000 nM
K-562; K-562, 5 log dose, 48 h, read-out: LC50 (the source's name)
  CC50: > 100000 nM
K-562; K-562, single dose 10 μM, read-out: percent cell growth promotion
  activity at 10 µM: 5.58%
NCI-H23; NCI-H23, 5 log dose
  GI50: 750 nM
  IC (TGI): 2870 nM
NCI-H23; NCI-H23, 5 log dose, 48 h, read-out: LC50 (the source's name)
  CC50: 9610 nM
NCI-H23; NCI-H23, single dose 10 μM, read-out: percent cell growth promotion
  activity at 10 µM: 0.5%
A549/ATCC; 5 log dose
  GI50: 2810 nM
  IC (TGI): 11500 nM
A549/ATCC; 5 log dose, 48 h
  LC50 (concentration killing 50% of cells): > 100000 nM
A549/ATCC; [2]
  activity at 10 µM: 40%
SF-268; SF-268, 5 log dose
  GI50: 1350 nM
  IC (TGI): 7210 nM
SF-268; SF-268, 5 log dose, 48 h, read-out: LC50 (the source's name)
  CC50: 70200 nM
SF-268; SF-268, single dose 10 μM, read-out: percent cell growth promotion
  activity at 10 µM: 12.6%
NCI-H322M; 5 log dose
  GI50: 2600 nM
  IC (TGI): 9510 nM
NCI-H322M; [1]
  CC50: 34900 nM
NCI-H322M; [2]
  activity at 10 µM: 60.9%
ACHN; 5 log dose
  GI50: 1050 nM
  IC (TGI): 2330 nM
ACHN; [1]
  CC50: 5180 nM
ACHN; [2]
  activity at 10 µM: -15.1%
VEGFR-2 tyrosine kinase
  inhibition at 10 µM: 13%
UACC-257; UACC-257
  GI50: 150 nM
UACC-257; UACC-257, read-out: TGI
  IC (TGI): 4040 nM
UACC-257; UACC-257, read-out: percent cell growth promotion
  activity at 10 µM: 34.4%
UACC-257; UACC-257, 5 log dose, 48 h, read-out: LC50 (the source's name)
  CC50: 12900 nM
UO-31; UO-31, 5 log dose
  GI50: 1290 nM
  IC (TGI): 2670 nM
UO-31; UO-31, single dose 10 μM, read-out: percent cell growth promotion
  activity at 10 µM: -51.6%
U251; U251, 5 log dose
  GI50: 1010 nM
  IC (TGI): 2380 nM
U251; U251, 5 log dose, 48 h, read-out: LC50 (the source's name)
  CC50: 5610 nM
U251; U251, single dose 10 μM, read-out: percent cell growth promotion
  activity at 10 µM: -31.1%
MOLT-4; MOLT-4, 5 log dose
  GI50: 370 nM
  IC (TGI): > 100000 nM
MOLT-4; MOLT-4, 5 log dose, 48 h, read-out: LC50 (the source's name)
  CC50: > 100000 nM
MOLT-4; MOLT-4, single dose 10 μM, read-out: percent cell growth promotion
  activity at 10 µM: 3.99%
RPMI-8226; RPMI-8226, 5 log dose
  GI50: 480 nM
  IC (TGI): 4580 nM
RPMI-8226; RPMI-8226, 5 log dose, 48 h, read-out: LC50 (the source's name)
  CC50: > 100000 nM
RPMI-8226; RPMI-8226, single dose 10 μM, read-out: percent cell growth promotion
  activity at 10 µM: -0.08%
HOP-92; HOP-92, 5 log dose
  GI50: 1640 nM
  IC (TGI): 4370 nM
HOP-92; HOP-92, 5 log dose, 48 h, read-out: LC50 (the source's name)
  CC50: 17100 nM
HOP-92; HOP-92, single dose 10 μM, read-out: percent cell growth promotion
  activity at 10 µM: 12.9%
NCI-H522; NCI-H522, 5 log dose
  GI50: 190 nM
  IC (TGI): 410 nM
NCI-H522; NCI-H522, 5 log dose, 48 h, read-out: LC50 (the source's name)
  CC50: 910 nM
NCI-H522; NCI-H522, single dose 10 μM, read-out: percent cell growth promotion
  activity at 10 µM: -46.4%
NCI/ADR-RES; 5 log dose
  GI50: 2630 nM
  IC (TGI): > 100000 nM
NCI/ADR-RES; [1]
  CC50: > 100000 nM
NCI/ADR-RES; [2]
  activity at 10 µM: 37.6%
SF-295; SF-295, 5 log dose
  GI50: 2540 nM
  IC (TGI): 6270 nM
SF-295; SF-295, 5 log dose, 48 h, read-out: LC50 (the source's name)
  CC50: 36900 nM
SF-295; SF-295, single dose 10 μM, read-out: percent cell growth promotion
  activity at 10 µM: 40.7%
